# Reference: patent publication US10835542B2, “9-aminomethyl minocycline compounds and use thereof in treating community-acquired bacterial pneumonia (CABP)” (Paratek Pharmaceuticals, Inc., priority 2016, dated 2020)
# “And” between values parts separate entries of the source, which are not always exact repeats. Identical values can stand only once.
# Experiments:
# [1] = tested on: Community-Acquired Bacterial Pneumonia (CABP); test: Phase 3 CABP study: Investigator's Assessment of Clinical Response at PTE; assay type: in vivo, human; settings: ITT
# [2] = Phase 1 multiple oral dose study: safety and tolerability; settings: for Most frequent TEAEs: ALT increased, n (%) / Most frequent TEAEs: Diarrhea, n (%) / Most frequent TEAEs: Dizziness, n (%) / Most frequent TEAEs: Nausea, n (%) / Most frequent TEAEs: Vomiting, n (%) / TEAEs leading to early discontinuation of study drug: ALT increased, n (%) / TEAEs leading to early discontinuation of study drug: All, n (%) / TEAEs leading to early discontinuation of study drug: Lipase increased, n (%) / TEAEs leading to early discontinuation of study drug: Nausea, n (%) / TEAEs leading to early discontinuation of study drug: Syncope, n (%) / TEAEs leading to early discontinuation of study drug: Vomiting, n (%) / n (%) of subjects with Any TEAE / n (%) of subjects with Treatment-related TEAE: Safety Population
# [3] = tested on: Klebsiella pneumoniae; test: Clinical success at PTE by baseline pathogen, microITT; assay type: in vivo, human; settings: N1 = 13 (Compound 1), 13 (Moxifloxacin)
# [4] = subject who received 450 mg in Period 1 then 300 mg in Period 2
smiles,measurement,setting,value
"CN(C)c1cc(CNCC(C)(C)C)c(O)c2c1C[C@H]1C[C@H]3[C@H](N(C)C)C(O)=C(C(N)=O)C(=O)[C@@]3(O)C(O)=C1C2=O [Compound 1, 9-[(2,2-dimethyl-propylamino)-methyl]-minocycline]",Clinical Failure or Indeterminate at PTE,[1]; actual PORT Risk Class III/IV,38 (11.6) n (%)
same,Clinical Success at PTE,[1]; actual PORT Risk Class III/IV,291 (88.4) n (%)
same,Difference (95% CI) in clinical success at PTE,[1]; actual PORT Risk Class III/IV,"3.3% and 3.3 (−1.9, 8.5)^[4] %"
same,Indeterminate at PTE,[1]; actual PORT Risk Class III/IV,11 (3.3) n (%)
same,Clinical Failure at PTE,[1]; actual PORT Risk Class IV,11 (10.8) n (%)
same,Clinical Failure or Indeterminate at PTE,[1]; actual PORT Risk Class IV,17 (16.7) n (%)
same,Clinical Success at PTE,[1]; actual PORT Risk Class IV,85 (83.3) n (%)
same,Indeterminate at PTE,[1]; actual PORT Risk Class IV,6 (5.9) n (%)
same,frequency of treatment-related TEAEs,[2]; 300 mg,15.4%
same,median change in alanine aminotransferase (ALT) between baseline and Day 5,[2]; 300 mg,−2.0 IU/L
same,"Most frequent TEAEs: ALT increased, n (%)",[2]; 300 mg (n = 26),0 n (%)
same,"Most frequent TEAEs: Diarrhea, n (%)",[2]; 300 mg (n = 26),0 n (%)
same,"Most frequent TEAEs: Dizziness, n (%)",[2]; 300 mg (n = 26),2 (7.7) n (%)
same,"Most frequent TEAEs: Nausea, n (%)",[2]; 300 mg (n = 26),2 (7.7) n (%)
same,"Most frequent TEAEs: Vomiting, n (%)",[2]; 300 mg (n = 26),2 (7.7) n (%)
same,"TEAEs leading to early discontinuation of study drug: ALT increased, n (%)",[2]; 300 mg (n = 26),0 n (%)
same,"TEAEs leading to early discontinuation of study drug: All, n (%)",[2]; 300 mg (n = 26),1 (3.8) n (%)
same,"TEAEs leading to early discontinuation of study drug: Lipase increased, n (%)",[2]; 300 mg (n = 26),0 n (%)
same,"TEAEs leading to early discontinuation of study drug: Nausea, n (%)",[2]; 300 mg (n = 26),1 (3.8) n (%)
same,"TEAEs leading to early discontinuation of study drug: Syncope, n (%)",[2]; 300 mg (n = 26),0 n (%)
same,"TEAEs leading to early discontinuation of study drug: Vomiting, n (%)",[2]; 300 mg (n = 26),1 (3.8) n (%)
same,n (%) of subjects with Any TEAE,[2]; 300 mg (n = 26),5 (19.2) n (%)
same,n (%) of subjects with Treatment-related TEAE,[2]; 300 mg (n = 26),4 (15.4) n (%)
same,frequency of treatment-related TEAEs,[2]; 450 mg,8.3%
same,median change in alanine aminotransferase (ALT) between baseline and Day 5,[2]; 450 mg,5.0 IU/L
same,"Most frequent TEAEs: ALT increased, n (%)",[2]; 450 mg (n = 24),1 (4.2) n (%)
same,"Most frequent TEAEs: Diarrhea, n (%)",[2]; 450 mg (n = 24),0 n (%)
same,"Most frequent TEAEs: Dizziness, n (%)",[2]; 450 mg (n = 24),0 n (%)
same,"Most frequent TEAEs: Nausea, n (%)",[2]; 450 mg (n = 24),1 (4.2) n (%)
same,"Most frequent TEAEs: Vomiting, n (%)",[2]; 450 mg (n = 24),0 n (%)
same,"TEAEs leading to early discontinuation of study drug: ALT increased, n (%)",[2]; 450 mg (n = 24),1 (4.2) n (%)
same,"TEAEs leading to early discontinuation of study drug: All, n (%)",[2]; 450 mg (n = 24),1 (4.2) n (%)
same,"TEAEs leading to early discontinuation of study drug: Lipase increased, n (%)",[2]; 450 mg (n = 24),0 n (%)
same,"TEAEs leading to early discontinuation of study drug: Nausea, n (%)",[2]; 450 mg (n = 24),0 n (%)
same,"TEAEs leading to early discontinuation of study drug: Syncope, n (%)",[2]; 450 mg (n = 24),0 n (%)
same,"TEAEs leading to early discontinuation of study drug: Vomiting, n (%)",[2]; 450 mg (n = 24),0 n (%)
same,n (%) of subjects with Any TEAE,[2]; 450 mg (n = 24),3 (12.5) n (%)
same,n (%) of subjects with Treatment-related TEAE,[2]; 450 mg (n = 24),2 (8.3) n (%)
same,frequency of treatment-related TEAEs,[2]; 600 mg,25.0%
same,median change in alanine aminotransferase (ALT) between baseline and Day 5,[2]; 600 mg,19.5 IU/L
same,reports of diarrhea,[2]; 600 mg,2
same,"Most frequent TEAEs: ALT increased, n (%)",[2]; 600 mg (n = 24),1 (4.2) n (%)
same,"Most frequent TEAEs: Diarrhea, n (%)",[2]; 600 mg (n = 24),2 (8.3) n (%)
same,"Most frequent TEAEs: Dizziness, n (%)",[2]; 600 mg (n = 24),1 (4.2) n (%)
same,"Most frequent TEAEs: Nausea, n (%)",[2]; 600 mg (n = 24),4 (16.7) n (%)
same,"Most frequent TEAEs: Vomiting, n (%)",[2]; 600 mg (n = 24),1 (4.2) n (%)
same,"TEAEs leading to early discontinuation of study drug: ALT increased, n (%)",[2]; 600 mg (n = 24),0 n (%)
same,"TEAEs leading to early discontinuation of study drug: All, n (%)",[2]; 600 mg (n = 24),1 (4.2) n (%)
same,"TEAEs leading to early discontinuation of study drug: Lipase increased, n (%)",[2]; 600 mg (n = 24),1 (4.2) n (%)
same,"TEAEs leading to early discontinuation of study drug: Nausea, n (%)",[2]; 600 mg (n = 24),0 n (%)
same,"TEAEs leading to early discontinuation of study drug: Syncope, n (%)",[2]; 600 mg (n = 24),0 n (%)
same,"TEAEs leading to early discontinuation of study drug: Vomiting, n (%)",[2]; 600 mg (n = 24),0 n (%)
same,n (%) of subjects with Any TEAE,[2]; 600 mg (n = 24),6 (25.0) n (%)
same,n (%) of subjects with Treatment-related TEAE,[2]; 600 mg (n = 24),6 (25.0) n (%)
same,TEAE nausea,[2]; 600 mg group,16.7%
same,tolerability of multiple doses,"[2]; 300, 450 and 600 mg once daily for 5 days",generally well-tolerated
same,TEAE nausea,[2]; 300 and 450 mg dose groups,≤ 7.7%
same,"Most frequent TEAEs: ALT increased, n (%)",[2]; Omadacycline Overall (n = 26),2 (7.7) n (%)
same,"Most frequent TEAEs: Diarrhea, n (%)",[2]; Omadacycline Overall (n = 26),2 (7.7) n (%)
same,"Most frequent TEAEs: Dizziness, n (%)",[2]; Omadacycline Overall (n = 26),3 (11.5) n (%)
same,"Most frequent TEAEs: Nausea, n (%)",[2]; Omadacycline Overall (n = 26),6 (23.1) n (%)
same,"Most frequent TEAEs: Vomiting, n (%)",[2]; Omadacycline Overall (n = 26),3 (11.5) n (%)
same,"TEAEs leading to early discontinuation of study drug: ALT increased, n (%)",[2]; Omadacycline Overall (n = 26),1 (3.8) n (%)
same,"TEAEs leading to early discontinuation of study drug: All, n (%)",[2]; Omadacycline Overall (n = 26),3 (11.5) n (%)
same,"TEAEs leading to early discontinuation of study drug: Lipase increased, n (%)",[2]; Omadacycline Overall (n = 26),1 (3.8) n (%)
same,"TEAEs leading to early discontinuation of study drug: Nausea, n (%)",[2]; Omadacycline Overall (n = 26),1 (3.8) n (%)
same,"TEAEs leading to early discontinuation of study drug: Syncope, n (%)",[2]; Omadacycline Overall (n = 26),0 n (%)
same,"TEAEs leading to early discontinuation of study drug: Vomiting, n (%)",[2]; Omadacycline Overall (n = 26),1 (3.8) n (%)
same,n (%) of subjects with Any TEAE,[2]; Omadacycline Overall (n = 26),10 (38.5) n (%)
same,n (%) of subjects with Treatment-related TEAE,[2]; Omadacycline Overall (n = 26),9 (34.6) n (%)
same,serious TEAEs (SAEs),[2]; multiple oral doses 300-600 mg,no serious TEAEs
same,severity of TEAEs,[2]; multiple oral doses 300-600 mg,either mild or moderate
same,highest individual ALT value,[2]; [4],150 IU/L
same,highest individual ALT value above the upper limit of normal,[2]; [4],2.7 fold
same,subjects reporting TEAEs,"[2]; subjects that received omadacycline (300, 450, 600 mg)",38.5%
same,Clinical Success n (%),[3],10 (76.9) n (%)
